In PubChem BioAssay AID2305 (GlaxoSmithKline (GSK), 2010):
pIC50: −log10 of the molar value.

Tested on: P. falciparum 3D7 growth, pLDH absorbance
Assay: P. falciparum 3D7 growth inhibition, dose response, strain 3D7 (AID 2305)

Row | Structure (SMILES) | pIC50
1 | N=C(N)CCN(Cc1ccc(Cl)cc1)c1ccc(Cl)cc1 | 5.97
2 | OC1(Cc2ccccc2)CCN(Cc2cccc(-c3c[nH]c4nc(NC5CCCC5)ncc34)c2)CC1 | 6.03
3 | Cc1ccn2c(C(=O)N3CCN(c4cccc5c4nc(-c4ccoc4)n5Cc4ccccn4)CC3)c(C)nc2c1 | 6.70
4 | CCCc1ccc(C(=O)N2[C@@H](c3nccs3)[C@@H](C(N)=O)C[C@@]2(CC(C)C)C(=O)O)cc1 | 6.80
5 | c1ccc(-c2ccc(CNCCCNc3nc4ccccc4[nH]3)cc2)cc1 | 6.11
6 | COc1ccccc1-c1cccc2c(NC(=O)Nc3ccc4nccc(N5CCN(C)CC5)c4c3)ccnc12 | 6.00
7 | COc1ccc(C(=O)CCC(=O)N(Cc2ccc(-c3ccc(CNCCc4ccc(S(C)(=O)=O)cc4)cn3)cc2)C2CCN(Cc3ccccc3)CC2)cc1F | 6.36
8 | COc1ccc(-c2ccc(NC(=O)c3cccc(Cl)c3)cc2)cc1CN1CCCN(C)CC1 | 6.22
9 | N#Cc1ccc2c(c1)CCN(CCC1CCC(NC(=O)c3cc4ccc(Br)cc4[nH]3)CC1)C2 (stereo unspecified) | 6.12
10 | COc1cc2nc(N3CCC(C(N)=O)CC3)nc(NCc3ccccc3)c2cc1OC | 6.05
11 | O=C(Nc1ccccc1)Nc1cccc(-c2ccc(-c3nc4ccc(C(F)(F)F)cc4[nH]3)cc2)c1 | 6.64
12 | CC1CN(Cc2ccc(-c3ccc(-c4nc5ccccc5[nH]4)cc3)cc2)CC(C)O1 (stereo unspecified) | 6.28
13 | CC(C)N1CCN(C(CN2CCN(CCCOc3cccc(F)c3)CC2)c2ccc(F)cc2)CC1 (stereo unspecified) | 6.04
14 | Nc1nccc2ccc(OC3CCCCC3)cc12 | 6.22
15 | COc1ccc(Nc2nccc(NCCNC(=O)c3cc4ccccc4s3)n2)cc1 | 5.99
16 | CCCCCCOc1ccc(C(N)=NCc2ccccc2)c2c1CCCC2 | 5.90
17 | CCCCCCN1CCC(NCc2cccc([N+](=O)[O-])c2)CC1 | 6.17
18 | COc1ccc(NC(=O)/C=C/c2ccccc2Cl)cc1OCCN1CCC(O)(c2ccc(Cl)c(C(F)(F)F)c2)CC1 | 6.19
19 | CCOc1ccc(Nc2cc(C)nc(Nc3ccc(OCC)cc3)n2)cc1 | 6.06
20 | COc1ccc(N2C(N)=NC(N)=NC2(C)C)cc1OC | 6.51
21 | COC(=O)c1ccc(-c2ccc(C(=O)NCC3CCN(c4nc(N)c5cc(OC)c(OC)cc5n4)CC3)cc2)cc1 | 6.74
22 | CC[C@@H]([C@@H](CC(C)C)C(=O)N[C@@H](CCCCNC(=O)OCc1ccccc1)C(=O)Nc1ccccn1)N(O)C=O | 6.96
23 | COc1cc(-c2ccc3c(-c4ccc(C(=O)N5CCN(C)CC5)cc4)[nH]nc3n2)cc(OC)c1OC | 5.88
24 | CC(=O)Nc1ccc(C(=O)Nc2ccc(-c3csc(-c4nc5ccccc5[nH]4)c3)cc2)cn1 | 6.23

Row | Structure (SMILES) | pIC50
25 | CCNc1c2ccc(Cl)cc2nc2ccc(OC)cc12 | 6.08
26 | O=C(Nc1cccc(-c2ccc(-c3nc4ccc(C(F)(F)F)cc4[nH]3)cc2)c1)Nc1ccc(F)c(F)c1F | 6.59
27 | CCn1c2ccccc2c2cc(Cc3cnc(N)nc3N)ccc21 | 6.66
28 | Cc1cc(N2CCCC2)nc(Nc2ccc(NC(=O)c3ccc4c(c3)OCO4)cc2)n1 | 6.09
29 | CC(C)CNCc1cccc(-c2cccc(CN(CCCN3CCN(C)CC3)C(=O)Nc3ccccc3)c2)c1 | 5.94
30 | CCCCC(=O)NC(c1cccs1)c1cc(Cl)c2cccnc2c1O (stereo unspecified) | 6.42
31 | Cc1cc(N2CCC(NS(=O)(=O)c3cccc4cccnc34)CC2)nc(Nc2cccc(C#N)c2)n1 | 6.12
32 | COc1ccc(C2CC(c3cccs3)=NN2C(=O)CNc2ccccc2F)cc1OC (stereo unspecified) | 6.20
33 | CC(C)c1cc(N)c2cc(NC(=O)COCC(=O)Nc3ccc4nc(C(C)C)cc(N)c4c3)ccc2n1 | 6.66
34 | CC(C)CNCc1cccc(-c2ccc(CNc3ccc(C(=O)c4ccccc4)cc3)cc2)c1 | 6.12
35 | Nc1nc(N)c2c(ccc3nn(C4CCCC4)cc32)n1 | 6.54
36 | O=C(c1ccc(-c2cnc3[nH]cc(-c4ccc(C(=O)N5CCOCC5)cc4)c3c2)cc1)N1CCOCC1 | 6.00
37 | CCCN1CCN(CCCNC(=O)c2cc3c(-c4ccc(Cl)cc4)nn(C)c3s2)CC1 | 5.96
38 | Oc1ccc(CN2Cc3ccccc3OC3(CCN(Cc4c[nH]c5cnccc45)CC3)C2)cc1 | 5.93
39 | Cc1noc(-c2ccccc2)c1CN1CCCC2(CC(C(=O)NCc3cccc(F)c3F)=NO2)C1 (stereo unspecified) | 6.00
40 | Fc1ccc2nc(-c3ccc(-c4cccc(CN5CCN(CCN6CCOCC6)CC5)c4)cc3)[nH]c2c1 | 6.85
41 | CC1c2cccc(O)c2CCN1CCc1ccc(Cl)c(Cl)c1 (stereo unspecified) | 6.85
42 | CN1CC[C@@H](Oc2cc(NC(=O)Nc3ccc(Cl)c(C(F)(F)F)c3)ccc2Cl)C1 | 6.00
43 | O=C(Nc1ccc(N2CCN(Cc3ccccc3)CC2)cc1)c1cccs1 | 6.11
44 | FC(F)(F)c1ccc2nc(-c3ccc(-c4ccc(CNCc5cnn(-c6ccccc6)n5)cc4)s3)[nH]c2c1 | 6.34
45 | CN(C)c1cccc2c1nc(-c1ccco1)n2CCNCc1ccccc1 | 6.09
46 | O=C(Nc1ccc2c(c1)CCC2)c1ccc(N2CCN(c3ccncc3)CC2)cn1 | 6.07
47 | CCNc1cc(C(=O)N[C@@H](Cc2ccccc2)[C@H](O)CNCCc2ccccc2)cc(N2CCCCS2(=O)=O)c1 | 6.03
48 | O=C(Nc1ccc(OC2CCN(Cc3ccccc3)CC2)c(Cl)c1)c1ccc(F)cc1 | 6.10

Row | Structure (SMILES) | pIC50
49 | COc1ccc2nccc([C@@H](O)CN3CCC(NCc4cc5oc(=O)[nH]c5cc4F)CC3)c2c1 | 6.11
50 | O=C(Nc1cccc(CN2CCCN(Cc3cccc(F)c3)CC2)c1)c1ccc(Cl)c(Cl)c1 | 6.04
51 | N#Cc1nc2ccc(OCCN(Cc3ccccc3C(F)(F)F)c3ccc(C#N)c(C(F)(F)F)c3)cc2s1 | 6.07
52 | Oc1ccc2ccccc2c1CNCC1CCCCC1 | 6.17
53 | Cc1cc(N[C@@H](Cc2ccccc2)C(=O)NC2CCCC2)nc(NCCOc2ccccc2)n1 | 5.95
54 | Cc1cccc(N2CCN(C3CCC(NC(=O)c4cc5ccccc5[nH]4)CC3)CC2)c1C (stereo unspecified) | 6.21
55 | CC1CC(C)CN(CC(O)CNC(=O)Nc2ccc(Br)cc2)C1 (stereo unspecified) | 5.98
56 | CCOC(=O)C(=O)N1c2ccc(OCC)cc2-c2c(ssc2=S)C1(C)C | 6.66
57 | N=c1n(Cc2ccccc2)c2ccccc2n1CC(O)c1ccc(Cl)c(Cl)c1 (stereo unspecified) | 6.08
58 | Cc1cc(CNCCCCCCCNCc2ccc(Cl)cc2)ccc1O | 6.01
59 | Cc1cc(=O)[nH]c(/N=C(/N)NOCc2ccccc2)n1 | 6.38
60 | Cn1cccc1C(=O)Nc1cccc(-c2nn3ccccc3c2-c2ccnc(Nc3ccc4c(c3)OCCO4)n2)c1 | 5.87
61 | CO/C(=C\C=C\c1cc2cc(Cl)c(Cl)cc2[nH]1)C(=O)NCCCN1CCN(Cc2ccccc2)CC1 | 6.04
62 | COC(=O)c1ccc(CC(C)NCC(O)c2cccc(OC(F)(F)F)c2)cc1 (stereo unspecified) | 6.07
63 | CC(Oc1cc(-n2cnc3ccc(NC(=O)CCN4CCCCC4)cc32)sc1C(N)=O)c1ccccc1Cl (stereo unspecified) | 6.40
64 | O=C(Nc1ccc2c(c1)CCNCC2)c1ccc(-c2ccc(Cl)cc2)cc1 | 6.09
65 | Nc1c2c(nc3ccccc13)C(=Cc1ccc(O)cc1)CCC2 | 6.74
66 | CNc1ccc(CNCc2ccc(-c3ccc(-c4nc5c(C)cccc5[nH]4)s3)cc2)cc1 | 6.18
67 | CCc1cc(-c2onc(C)c2-c2cc3ccccc3o2)c(O)cc1OC | 6.01
68 | O=C(Nc1ccc(C(F)(F)F)cc1)Nc1cccc([N+](=O)[O-])c1 | 6.06
69 | CC(Cc1ccc(NC(=O)[C@@H](C)NCCc2cccc(Cl)c2)cc1)NCCc1cccc(Cl)c1 (stereo partly specified) | 6.11
70 | O=C(/C=C/c1ccc(O)cc1)NC1CCC(CN2CCC(c3c[nH]c4ccccc34)CC2)CC1 (stereo unspecified) | 6.13
71 | CN1CCN(c2ccnc3ccc(NC(=O)Nc4ccc(-c5ccccc5)cc4)cc23)CC1 | 6.11
